Measurements reported in patent US20060223812A1, “Treating neurodegenerative conditions” (MAX-PLANCK-GESELLSCHAFT ZUR FORDERUNGDER WISSENSCHAFTEN, …, priority 2004, published 2006).
Where two headings read alike, the source gives them in different places.

Key:
[1] = molecular target: T1, PHFs from K18 (Homo sapiens, UniProt P10636); experiment: Thioflavine S assay, depolymerisation of pre-formed PHFs, K18; assay type: biochemical
T1 construct: made in house; host or cells: E. coli
Text: (§1) The ThS assay was used to analyse the ability of the five compounds (see Example 4) to depolymerise pre-formed PHFs made from the repeat domain constructs K19 and K18 as well as from isoforms htau23 and htau24, containing 3 or 4 repeats, respectively.
(§2) The depolymerisation of K19 filaments (FIG. 4A) followed a similar concentration dependence as the inhibition experiment, with consistently similar or slightly higher DC50 values than the corresponding IC50 concentrations (Table 2). The ratios of IC50/DC50 range from 0.2-1.2. […] Here, too, the concentration dependence for K19 was steeper than for K18 (compare FIGS. 4A, B), similar to that of assembly inhibition (FIGS. 2A, B).
(§3) Tau constructs and isoforms K19, K18, hTau23, hTau24 (10 μM) were first aggregated into PHFs for 48 hours in the presence of 2.5 μM heparin (except K18/ΔK280) and the polymers separated from the soluble tau by centrifugation of 1 h at 100,000 g, redissolved and then exposed to the inhibitors overnight at 37° C. at the indicated concentrations (range 0.001-200 μM). The compounds are capable of disassembling PHFs with varying efficiencies (see Table 2).

[2] = molecular target: T2, PHFs from htau24 (Homo sapiens, UniProt P10636); experiment: Thioflavine S assay, depolymerisation of pre-formed PHFs, htau24; assay type: biochemical
T2 construct: made in house; host or cells: E. coli
T2 sequence (P10636 1-383 isoform P10636-6): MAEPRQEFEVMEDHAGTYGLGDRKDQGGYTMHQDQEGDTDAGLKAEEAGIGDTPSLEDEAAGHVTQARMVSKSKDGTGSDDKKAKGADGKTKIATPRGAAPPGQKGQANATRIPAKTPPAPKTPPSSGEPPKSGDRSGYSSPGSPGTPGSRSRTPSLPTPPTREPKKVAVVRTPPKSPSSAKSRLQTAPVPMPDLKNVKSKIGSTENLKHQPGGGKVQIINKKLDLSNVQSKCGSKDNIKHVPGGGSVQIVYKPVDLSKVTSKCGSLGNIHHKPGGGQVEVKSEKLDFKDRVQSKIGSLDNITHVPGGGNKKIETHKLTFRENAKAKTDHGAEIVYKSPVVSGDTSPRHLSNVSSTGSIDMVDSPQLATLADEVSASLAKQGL
Procedure: as §1
as §3, with “μM).” for “μM). The compounds are capable of disassembling PHFs with varying efficiencies (see Table 2).”

[3] = molecular target: T3, PHFs from K19 (Homo sapiens, UniProt P10636); experiment: Thioflavine S assay, depolymerisation of pre-formed PHFs, K19; assay type: biochemical
T3 construct: construct K19 containing three repeats; made in house; host or cells: E. coli
T3 sequence (P10636 with tags, fused parts or gaps isoform P10636-2 limits assumed): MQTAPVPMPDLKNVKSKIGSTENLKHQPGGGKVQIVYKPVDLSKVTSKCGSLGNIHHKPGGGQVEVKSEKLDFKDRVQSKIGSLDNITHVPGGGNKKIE
Procedure: Depolymerisation of PHFs was monitored by the thioflavine S fluorescence. 60 μM of each compound was tested for its ability to depolymerise pre-formed PHFs. 50 mM NH4Ac, 10 μM PHF (K19), 60 μM compound and 5 μM heparin were mixed in 50 μl volume in a 384 well plate (black microtiter 384 plate round well, ThermoLabsystems, Dreiich, Germany) and incubated overnight at 37° C. As a control the reaction mixture without compound was treated in the same way.
After incubation thioflavine S was added to the buffer to a final concentration of 20 μM and the signal was measured at excitation at 440 nm and emission at 521 nm in a spectrofluorimeter (Ascent; Labsystems, Frankfurt).
as §1, §2, §3

[4] = test system: K18/Y310W; experiment: Tryptophan fluorescence inhibition assay, K18/Y310W; assay type: biochemical, human; conditions: 60 μM compound
Text: In order to exclude a possible distortion of the data by the dye the results of the ThS assays can be confirmed by a tryptophan fluorescence assay (Li et al., 2002). It allows the detection of the molecular environment of a tryptophan introduced instead of tyrosine 310 whose emission maximum is sensitive to the burial in a more hydrophobic surrounding upon PHF formation. Therefore the mutants K19/Y310W (FIG. 1I) and K18/Y310W (FIG. 1H) that contain a single tryptophan within the core of the PHF structure were created. In the soluble protein the emission maximum lies at ˜354 nm, whereas it shifts to 340 nm upon PHF formation (FIG. 3A, compare first and second entry). The emission peak can be shifted back by incubation at high concentrations of GuHCl which is due to the disassembly of the PHFs (FIG. 3A, fourth entry).
The fluorescence experiments were performed on a Spex Fluoromax spectrophotometer (Polytec, Waldbronn, Germany) using 3 mm×3 mm micro cuvettes from Hellma (Mühlheim, Germany) with 20 μl sample volumes. A tryptophan emission spectrum scans from 300 to 450 nm at fixed excitation wavelength of 290 nm. The slit widths were 5 nm, the integration time was 0.25 second, and the photomultiplier voltage was 950 V. For fluorescence inhibition assay, 60 μM compounds were incubated with K19/Y310W construct (10 μM) or K18/ΔK280/Y310W and heparin (2.5 μM) in PBS, pH 7.4 three days at 37° C.
In the Trp fluorescence assay the inhibition of PHF assembly becomes apparent if the emission maximum of Trp310 remains higher than that of the control without any compound, because Trp310 remains in a more solvent-accessible hydrophilic environment. The three repeat tau construct K19 (at 10 μM) was prevented from polymerisation by about 90% by the presence of all compounds at a concentration, of 60 μM (FIG. 3A, note that entries 5-9 retain their values around 354 nm, similar to the control #1). […] The internal ranking stays roughly the same as with K18; PHF005 (#9) is the best, PHF016 (#8) the worst inhibitor. […] The apparent degrees of inhibition differ somewhat between the ThS fluorescence and the intrinsic Trp fluorescence assays, but this may be due to the different origins of the signal. In the ThS assay the dye has to bind to the filaments, which requires a minimal length of the fibres. The tryptophan fluorescence assay depends on the local surrounding of the residue and is therefore less dependent on the length of the filaments.
(A-C) fluorescence emission maximum of the single tryptophan W310 inserted by site-directed mutagenesis into tau constructs K19 (FIG. 3A), K18 (FIG. 3B) and K18/ΔK280 (FIG. 3C). Fully solvent-accessible Trp has an emission maximum at ˜355 nm, a blue-shift to lower wavelengths is an indicator of PHF aggregation. […]

[5] = ThS fluorescence, overnight 37° C., read-out: Depolymerisation of PHFs DC50, K18
[6] = ThS fluorescence, pre-formed PHFs; read-out: Depolymerisation of PHFs DC50, hTau24
[7] = ThS fluorescence, overnight 37° C., read-out: Depolymerisation of PHFs DC50, K19

T1 sequence (P10636 561-685 limits assumed): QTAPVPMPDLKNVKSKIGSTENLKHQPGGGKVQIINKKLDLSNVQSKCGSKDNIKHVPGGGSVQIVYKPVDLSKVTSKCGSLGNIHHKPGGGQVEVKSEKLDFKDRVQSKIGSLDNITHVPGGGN

| Structure (SMILES) | DC50 [1, 5] [µM] | DC50 [2, 6] [µM] | DC50 [3, 7] [µM] | depolymerisation of htau24 filaments [2] | inhibition of PHF formation, K18/Y310W, Trp fluorescence [4] | DC50 ([1]; read-out: Depolymerisation of PHFs DC50, K18, ThS fluorescence, overnight 37° C.) [µM] | DC50 ([2]; read-out: Depolymerisation of PHFs DC50, hTau24; ThS fluorescence, pre-formed PHFs) [µM] | DC50 ([3]; read-out: Depolymerisation of PHFs DC50, K19, ThS fluorescence, overnight 37° C.) [µM] |
| --- | --- | --- | --- | --- | --- | --- | --- | --- |
| O=C(c1ccccc1)c1ccc(O)c(O)c1O [PHF005, 1-Phenyl-1-(2,3,4-trihydroxy-phenyl)-methanone] | 20.8 | 10.8 | 9.4 | – | – | – | – | – |
| Cc1cc(O)c2c(c1)C(=O)c1cc(O)cc(O)c1C2=O [Emodin, 1,3,8-Trihydroxy-6-methyl-anthraquinone] | 2 | > 60 | 2 | only weak PHF breakers | about 70% | – | – | – |
| COc1cccc2c1C(=O)c1c(O)c3c(c(O)c1C2=O)CC(O)(C(=O)CO)CC3OC1CC(N)C(O)C(C)O1 (stereo not drawn) [Adriamycin, 10-(4-Amino-5-hydroxy-6-methyl-tetrahydro-pyran-2-yloxy)-6,8,11-trihydroxy-8-(2-hydroxyethanoyl)-1-methoxy-7,8,9,10-tetrahydro-naphthacene-5,12-dione, reference compound] | – | – | – | – | about 70% | 4.3 | > 60 | 27 |
| O=C1c2ccc(O)c(O)c2C(=O)c2c(O)ccc(O)c21 [PHF016, 1,2,5,8-Tetrahydroxy-anthraquinone] | 7.3 | 39.2 | 7.8 | – | 25% | – | – | – |
| COc1cccc2c1C(=O)c1c(O)c3c(c(O)c1C2=O)CC(O)(C(C)=O)CC3OC1CC(N)C(O)C(C)O1 (stereo not drawn) [Daunorubicin, 8-Acetyl-10-(4-amino-5-hydroxy-6-methyl-tetrahydro-pyran-2-yloxy)-6,8,11-trihydroxy-1-methoxy-7,8,9,10-tetrahydro-naphthacene-5,12-dione, reference compound] | 4 | > 60 | 3.1 | only weak PHF breakers | about 70% | – | – | – |
